Experimental data: ChEMBL document CHEMBL5465560, “Selectivity Literature for EUbOPEN Chemogenomic Library” (2024)
pIC50: −log10 of the molar value. Blank lines part the entries; values can stand above or below the compound they belong to.

Assays:
[1] = target: T1, Discoidin domain-containing receptor 2 (Homo sapiens) (UniProt Q16832); conditions: at 10 µM
T1 sequence (whole entry): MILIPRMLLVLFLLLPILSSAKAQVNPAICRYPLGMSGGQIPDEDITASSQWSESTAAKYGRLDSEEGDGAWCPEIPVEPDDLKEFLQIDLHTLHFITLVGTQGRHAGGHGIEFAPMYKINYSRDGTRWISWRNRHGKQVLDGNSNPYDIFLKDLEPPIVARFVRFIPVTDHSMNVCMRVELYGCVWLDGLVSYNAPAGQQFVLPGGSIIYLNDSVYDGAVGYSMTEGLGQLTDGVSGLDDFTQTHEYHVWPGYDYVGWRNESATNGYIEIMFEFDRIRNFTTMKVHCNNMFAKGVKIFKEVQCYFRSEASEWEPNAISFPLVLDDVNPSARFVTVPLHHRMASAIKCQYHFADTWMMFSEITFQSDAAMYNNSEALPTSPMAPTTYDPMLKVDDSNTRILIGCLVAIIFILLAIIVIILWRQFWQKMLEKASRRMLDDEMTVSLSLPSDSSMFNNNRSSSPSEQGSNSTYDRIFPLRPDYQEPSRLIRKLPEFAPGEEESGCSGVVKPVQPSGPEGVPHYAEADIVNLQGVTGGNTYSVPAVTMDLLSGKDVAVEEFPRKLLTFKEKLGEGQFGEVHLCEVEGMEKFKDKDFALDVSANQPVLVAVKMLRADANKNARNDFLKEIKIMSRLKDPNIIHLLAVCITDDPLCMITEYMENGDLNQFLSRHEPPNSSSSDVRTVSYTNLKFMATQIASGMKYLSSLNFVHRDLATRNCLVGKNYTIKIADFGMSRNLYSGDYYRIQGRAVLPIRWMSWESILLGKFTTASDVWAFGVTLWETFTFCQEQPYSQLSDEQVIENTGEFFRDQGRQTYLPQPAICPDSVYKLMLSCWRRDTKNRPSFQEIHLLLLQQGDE

[2] = target: Cyclin-dependent kinase 11B (Homo sapiens) (UniProt P21127); conditions: at 10 µM
[3] = target: RAC-alpha serine/threonine-protein kinase (Homo sapiens, UniProt P31749); assay: Selectivity interaction (KinomeScan (DiscoverX)) EUB0001049a AKT1; conditions: at 1 µM
Sequence of RAC-alpha serine/threonine-protein kinase (P31749 whole entry): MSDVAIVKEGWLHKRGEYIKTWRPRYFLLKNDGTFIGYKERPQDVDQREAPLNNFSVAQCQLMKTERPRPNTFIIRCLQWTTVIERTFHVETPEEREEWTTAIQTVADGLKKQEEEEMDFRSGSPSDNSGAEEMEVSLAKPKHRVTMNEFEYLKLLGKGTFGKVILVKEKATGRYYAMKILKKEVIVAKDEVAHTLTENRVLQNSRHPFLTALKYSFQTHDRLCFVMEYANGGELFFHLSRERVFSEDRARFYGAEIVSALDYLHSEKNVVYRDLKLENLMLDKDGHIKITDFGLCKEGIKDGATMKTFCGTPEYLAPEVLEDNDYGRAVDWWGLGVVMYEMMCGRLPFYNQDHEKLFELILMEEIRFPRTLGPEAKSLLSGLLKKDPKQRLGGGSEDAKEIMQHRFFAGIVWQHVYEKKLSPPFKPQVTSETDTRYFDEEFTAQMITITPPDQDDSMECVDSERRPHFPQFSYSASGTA

[4] = target: Tyrosine-protein kinase ABL2 (Homo sapiens, UniProt P42684); assay: Selectivity interaction (Ambit KINOMEscan and KiNATiv profiling in Jurkat cells) EUB0000090b ABL2; format: cell-based; conditions: at 1 µM
Sequence of Tyrosine-protein kinase ABL2 (P42684 whole entry): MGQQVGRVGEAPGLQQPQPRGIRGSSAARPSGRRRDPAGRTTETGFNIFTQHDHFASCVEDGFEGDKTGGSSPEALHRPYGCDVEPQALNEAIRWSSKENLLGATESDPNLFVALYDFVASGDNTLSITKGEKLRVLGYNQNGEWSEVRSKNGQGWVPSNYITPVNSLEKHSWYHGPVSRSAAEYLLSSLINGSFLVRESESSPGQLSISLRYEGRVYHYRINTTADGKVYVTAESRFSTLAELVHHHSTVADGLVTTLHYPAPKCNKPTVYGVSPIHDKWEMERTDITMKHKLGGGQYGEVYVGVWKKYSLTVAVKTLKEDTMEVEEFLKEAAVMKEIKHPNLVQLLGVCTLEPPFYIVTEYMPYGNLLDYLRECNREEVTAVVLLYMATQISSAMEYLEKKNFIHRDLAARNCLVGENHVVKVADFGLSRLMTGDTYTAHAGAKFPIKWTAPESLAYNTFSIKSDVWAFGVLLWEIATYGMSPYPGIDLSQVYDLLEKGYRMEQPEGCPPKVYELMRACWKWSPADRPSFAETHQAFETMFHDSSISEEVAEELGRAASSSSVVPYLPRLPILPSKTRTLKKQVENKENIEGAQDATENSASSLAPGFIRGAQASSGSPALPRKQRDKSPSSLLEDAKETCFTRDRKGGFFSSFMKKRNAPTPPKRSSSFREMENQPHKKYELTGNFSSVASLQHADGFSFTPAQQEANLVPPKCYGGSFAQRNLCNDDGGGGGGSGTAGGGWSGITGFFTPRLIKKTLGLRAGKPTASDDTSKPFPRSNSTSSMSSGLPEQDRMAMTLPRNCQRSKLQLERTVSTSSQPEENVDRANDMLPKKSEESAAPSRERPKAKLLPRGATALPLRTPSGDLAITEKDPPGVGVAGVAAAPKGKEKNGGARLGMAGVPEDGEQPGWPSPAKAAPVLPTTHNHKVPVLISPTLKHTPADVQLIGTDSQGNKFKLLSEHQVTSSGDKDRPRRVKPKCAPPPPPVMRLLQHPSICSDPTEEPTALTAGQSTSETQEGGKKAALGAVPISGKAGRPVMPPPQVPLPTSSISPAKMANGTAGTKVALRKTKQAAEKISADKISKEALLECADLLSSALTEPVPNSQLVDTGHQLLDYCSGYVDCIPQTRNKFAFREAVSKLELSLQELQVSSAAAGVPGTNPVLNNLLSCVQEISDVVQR

[5] = target: T2, Serine/threonine-protein kinase Sgk3 (Homo sapiens) (UniProt Q96BR1); assay: Selectivity interaction (ActivX KiNativ screen (kinase selectivity in THP-1 cell lysates)) EUB0000639a SGK3; format: subcellular; conditions: lysate, at 0.01 µM
T2 sequence (whole entry): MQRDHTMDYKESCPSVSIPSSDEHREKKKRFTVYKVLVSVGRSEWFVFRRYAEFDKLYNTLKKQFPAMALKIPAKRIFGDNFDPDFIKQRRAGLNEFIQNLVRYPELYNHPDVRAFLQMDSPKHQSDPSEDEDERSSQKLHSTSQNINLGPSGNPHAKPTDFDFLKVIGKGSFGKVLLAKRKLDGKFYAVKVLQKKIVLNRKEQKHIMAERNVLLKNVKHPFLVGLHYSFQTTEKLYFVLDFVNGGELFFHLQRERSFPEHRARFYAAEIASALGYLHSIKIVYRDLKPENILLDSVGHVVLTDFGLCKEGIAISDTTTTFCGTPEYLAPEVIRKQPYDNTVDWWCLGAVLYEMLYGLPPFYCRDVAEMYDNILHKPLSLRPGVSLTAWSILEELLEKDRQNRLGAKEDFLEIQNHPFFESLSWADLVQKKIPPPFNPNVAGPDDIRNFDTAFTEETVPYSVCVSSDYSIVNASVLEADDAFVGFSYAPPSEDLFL

[6] = target: Ribosomal protein S6 kinase alpha-3 (Homo sapiens, UniProt P51812); assay: Selectivity interaction (ActivX KiNativ screen (kinase selectivity in THP-1 cell lysates)) EUB0000639a RPS6KA3; format: subcellular; conditions: lysate, at 0.2 µM
D(1A) dopamine receptor = D(1A) dopamine receptor (Homo sapiens, UniProt P21728); assay: Selectivity interaction (Dopamine D1 - cAMP agonist mode ) EUB0000877a DRD1
Sequence of D(1A) dopamine receptor (P21728 whole entry): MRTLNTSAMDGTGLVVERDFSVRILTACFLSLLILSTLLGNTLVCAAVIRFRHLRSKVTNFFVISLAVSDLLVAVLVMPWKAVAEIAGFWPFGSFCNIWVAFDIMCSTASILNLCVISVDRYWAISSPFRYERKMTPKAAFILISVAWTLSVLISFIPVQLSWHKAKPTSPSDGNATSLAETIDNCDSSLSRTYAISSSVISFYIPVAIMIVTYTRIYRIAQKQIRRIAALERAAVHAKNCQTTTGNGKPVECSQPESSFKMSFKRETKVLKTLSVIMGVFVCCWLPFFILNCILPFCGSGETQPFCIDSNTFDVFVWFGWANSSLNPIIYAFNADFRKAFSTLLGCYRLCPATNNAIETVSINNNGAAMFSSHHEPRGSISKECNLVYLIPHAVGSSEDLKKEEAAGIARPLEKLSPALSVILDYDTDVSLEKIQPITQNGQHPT

[7] = target: L-type calcium channel Cav1.2 (CACNA1C) (Homo sapiens, UniProt Q13936); assay: Selectivity interaction (Eurofins CEREP Diversity Profile (receptors and ion channels)) EUB0000279b CACNA1C; conditions: at 10 µM, read-out: % of control
Sequence of L-type calcium channel Cav1.2 (CACNA1C) (Q13936 whole entry): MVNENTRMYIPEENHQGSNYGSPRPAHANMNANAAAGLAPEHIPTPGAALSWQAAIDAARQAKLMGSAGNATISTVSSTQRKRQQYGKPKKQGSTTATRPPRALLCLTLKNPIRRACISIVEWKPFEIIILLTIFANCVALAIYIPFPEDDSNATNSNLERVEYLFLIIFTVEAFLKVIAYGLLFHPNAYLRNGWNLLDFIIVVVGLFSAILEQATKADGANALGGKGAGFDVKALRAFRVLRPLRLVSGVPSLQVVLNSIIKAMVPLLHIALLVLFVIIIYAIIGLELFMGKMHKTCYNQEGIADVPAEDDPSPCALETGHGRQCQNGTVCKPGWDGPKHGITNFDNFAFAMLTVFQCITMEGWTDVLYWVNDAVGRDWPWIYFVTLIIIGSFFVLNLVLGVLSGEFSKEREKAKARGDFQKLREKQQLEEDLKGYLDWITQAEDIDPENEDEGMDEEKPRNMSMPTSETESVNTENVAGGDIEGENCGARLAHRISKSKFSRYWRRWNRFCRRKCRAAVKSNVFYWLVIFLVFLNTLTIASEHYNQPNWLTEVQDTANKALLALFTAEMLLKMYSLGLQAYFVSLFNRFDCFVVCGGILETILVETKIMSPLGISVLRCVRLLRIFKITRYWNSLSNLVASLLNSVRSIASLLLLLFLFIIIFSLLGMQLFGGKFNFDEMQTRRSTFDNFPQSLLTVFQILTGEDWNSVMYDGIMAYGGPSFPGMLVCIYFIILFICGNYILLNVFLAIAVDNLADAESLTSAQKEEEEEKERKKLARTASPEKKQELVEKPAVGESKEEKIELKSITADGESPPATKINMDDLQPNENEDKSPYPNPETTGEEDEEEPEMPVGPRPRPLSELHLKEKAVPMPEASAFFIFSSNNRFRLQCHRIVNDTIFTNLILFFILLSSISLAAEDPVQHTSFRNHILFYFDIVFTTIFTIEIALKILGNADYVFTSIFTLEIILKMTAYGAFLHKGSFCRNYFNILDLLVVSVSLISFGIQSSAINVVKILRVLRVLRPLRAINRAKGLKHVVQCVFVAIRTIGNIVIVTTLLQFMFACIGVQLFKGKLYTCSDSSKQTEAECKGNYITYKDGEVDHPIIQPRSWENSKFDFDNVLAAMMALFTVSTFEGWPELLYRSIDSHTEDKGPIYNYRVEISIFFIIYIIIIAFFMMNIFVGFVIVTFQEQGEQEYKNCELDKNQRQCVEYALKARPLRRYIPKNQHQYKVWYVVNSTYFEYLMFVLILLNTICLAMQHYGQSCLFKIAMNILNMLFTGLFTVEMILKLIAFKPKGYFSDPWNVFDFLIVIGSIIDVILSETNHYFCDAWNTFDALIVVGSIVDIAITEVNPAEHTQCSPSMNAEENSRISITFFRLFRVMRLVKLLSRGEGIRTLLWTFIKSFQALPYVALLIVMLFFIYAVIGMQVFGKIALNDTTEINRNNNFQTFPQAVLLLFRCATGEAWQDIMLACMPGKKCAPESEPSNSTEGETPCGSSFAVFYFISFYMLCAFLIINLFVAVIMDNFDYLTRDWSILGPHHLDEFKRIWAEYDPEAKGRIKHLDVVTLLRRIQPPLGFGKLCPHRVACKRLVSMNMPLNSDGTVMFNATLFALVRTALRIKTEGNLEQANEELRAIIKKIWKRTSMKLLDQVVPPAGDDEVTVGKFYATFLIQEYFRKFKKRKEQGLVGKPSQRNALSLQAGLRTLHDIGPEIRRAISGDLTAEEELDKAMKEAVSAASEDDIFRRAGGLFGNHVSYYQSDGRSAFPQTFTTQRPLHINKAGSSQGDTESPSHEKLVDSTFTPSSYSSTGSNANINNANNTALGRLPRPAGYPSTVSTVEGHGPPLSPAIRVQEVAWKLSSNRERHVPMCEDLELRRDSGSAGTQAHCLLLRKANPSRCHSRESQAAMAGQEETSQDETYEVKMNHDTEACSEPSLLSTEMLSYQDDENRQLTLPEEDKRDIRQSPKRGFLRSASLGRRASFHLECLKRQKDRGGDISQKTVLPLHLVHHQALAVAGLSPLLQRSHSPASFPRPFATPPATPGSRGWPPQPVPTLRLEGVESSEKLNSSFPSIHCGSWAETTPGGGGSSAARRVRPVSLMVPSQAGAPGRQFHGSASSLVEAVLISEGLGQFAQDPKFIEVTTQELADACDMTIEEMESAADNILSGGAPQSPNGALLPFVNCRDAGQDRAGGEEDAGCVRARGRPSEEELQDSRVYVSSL

[8] = target: 1-phosphatidylinositol 3-phosphate 5-kinase (Homo sapiens) (UniProt Q9Y2I7); assay: Selectivity interaction (KinomeScan (DiscoverX)) EUB0001079a PIKFYVE; conditions: at 1 µM
[9] = target: T3, Serine/threonine-protein kinase TNNI3K (Homo sapiens) (UniProt Q59H18); assay: Selectivity interaction (KinomeScan (DiscoverX)) EUB0000655a TNNI3K; conditions: at 10 µM
T3 sequence (whole entry): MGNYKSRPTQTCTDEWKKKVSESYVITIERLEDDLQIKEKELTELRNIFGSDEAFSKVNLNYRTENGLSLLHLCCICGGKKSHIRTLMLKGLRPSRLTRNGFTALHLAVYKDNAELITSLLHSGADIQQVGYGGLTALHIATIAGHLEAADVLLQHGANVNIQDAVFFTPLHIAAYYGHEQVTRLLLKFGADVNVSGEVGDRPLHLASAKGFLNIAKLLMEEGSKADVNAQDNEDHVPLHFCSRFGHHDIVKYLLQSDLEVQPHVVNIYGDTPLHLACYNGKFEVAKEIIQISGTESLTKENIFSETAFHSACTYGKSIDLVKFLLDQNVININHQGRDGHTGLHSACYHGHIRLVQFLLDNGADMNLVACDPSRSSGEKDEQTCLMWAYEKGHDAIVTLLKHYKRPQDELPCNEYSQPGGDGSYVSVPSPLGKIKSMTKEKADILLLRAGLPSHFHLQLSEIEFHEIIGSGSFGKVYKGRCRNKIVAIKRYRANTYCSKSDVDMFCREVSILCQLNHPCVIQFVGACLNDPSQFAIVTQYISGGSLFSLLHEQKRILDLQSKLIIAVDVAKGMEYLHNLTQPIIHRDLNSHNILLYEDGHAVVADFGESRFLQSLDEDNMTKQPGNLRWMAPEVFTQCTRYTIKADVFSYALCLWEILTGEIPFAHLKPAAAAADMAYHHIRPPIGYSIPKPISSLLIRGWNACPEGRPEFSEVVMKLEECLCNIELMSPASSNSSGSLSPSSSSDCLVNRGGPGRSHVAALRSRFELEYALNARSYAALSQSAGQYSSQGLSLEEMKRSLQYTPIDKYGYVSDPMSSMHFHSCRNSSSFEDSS

[10] = target: Serine/threonine-protein kinase PAK 4 (Homo sapiens, UniProt O96013); assay: Selectivity interaction (KinomeScan (DiscoverX)) EUB0000655a PAK4; conditions: at 10 µM
Sequence of Serine/threonine-protein kinase PAK 4 (O96013 whole entry, looked up): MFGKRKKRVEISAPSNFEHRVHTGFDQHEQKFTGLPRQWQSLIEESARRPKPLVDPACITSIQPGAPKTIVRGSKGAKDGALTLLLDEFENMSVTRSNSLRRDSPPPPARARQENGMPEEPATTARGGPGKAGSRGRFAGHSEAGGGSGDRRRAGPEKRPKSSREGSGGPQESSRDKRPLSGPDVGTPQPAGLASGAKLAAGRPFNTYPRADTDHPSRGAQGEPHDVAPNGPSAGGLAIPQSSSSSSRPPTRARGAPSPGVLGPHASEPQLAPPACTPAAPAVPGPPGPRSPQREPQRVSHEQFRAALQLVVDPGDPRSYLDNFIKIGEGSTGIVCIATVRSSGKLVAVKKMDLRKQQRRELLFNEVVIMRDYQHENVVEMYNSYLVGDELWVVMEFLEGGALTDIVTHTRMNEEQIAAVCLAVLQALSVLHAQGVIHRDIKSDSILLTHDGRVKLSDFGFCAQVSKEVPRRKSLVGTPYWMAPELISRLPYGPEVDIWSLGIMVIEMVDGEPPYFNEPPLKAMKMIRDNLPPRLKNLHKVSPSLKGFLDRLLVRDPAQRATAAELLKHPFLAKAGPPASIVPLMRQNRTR

Misshapen-like kinase 1 = Misshapen-like kinase 1 (Homo sapiens, UniProt Q8N4C8); assay: Selectivity interaction (KinomeScan (DiscoverX)) EUB0000666a MINK1; conditions: at 10 µM

SMILES: Cc1cc([C@@H](C)Nc2ccccc2C(=O)O)c2nc(N3CCOCC3)cc(=O)n2c1 [AZD-6482]
% of control [1]: 83%
% of control [2]: 100%

SMILES: COc1cc(Nc2nc(C)cc(-c3cnn4nc(OC)ccc34)n2)cc(C(F)(F)F)c1
% of control [3]: 100%

SMILES: CN(C)C/C=C/C(=O)Nc1ccc(C(=O)N2CCCC(Nc3ncc(Cl)c(-c4c[nH]c5ccccc45)n3)C2)cc1 (configuration not stated)
% of control [4]: 92%

% of inhibition [5]: -1%
% of inhibition [6]: -3.7%
SMILES: CC[C@@H]1[C@H](F)C(=O)N[C@@H]1COc1nccc2cc(C(N)=O)c(OC)cc12 [ZIMLOVISERTIB]

pIC50 (D(1A) dopamine receptor): < 4.52
SMILES: CCC(=O)N1CC[C@H](Nc2ncnc3c2CN(c2cnc(OC)c(C(F)(F)F)c2)CC3)C1 [LENIOLISIB]

SMILES: CC(=O)c1cc(-c2ccccc2OCC2CC2)c2ncccn12
activity [7]: 21%

SMILES: Nc1cnc(N2CCc3cc(S(=O)(=O)Nc4c(F)cc(Cl)cc4F)cc(N4CCCC4=O)c32)nc1 [TP-020n]
% of control [8]: 100%

SMILES: CN(C)CCOc1ccc(-c2nc(-c3ccncc3)c(-c3ccc4c(c3)CC/C4=N\O)[nH]2)cc1
% of control [9]: 76%
% of control [10]: 92%

SMILES: O=C(NOC[C@H](O)CO)c1ccc(F)c(F)c1Nc1ccc(I)cc1F
% of control (Misshapen-like kinase 1): 94%
